Source: article PMC11537071, “Identification and characterization of a carbohydrate recognition domain-like region in Entamoeba histolytica Gal/GalNAc lectin intermediate subunit” (Microbiology Spectrum, 2024)

Columns and labels:
Igl-C3 = target: T1, Igl-C3 (Entamoeba histolytica, UniProt Q964D2); test: competition with FITC-PNA on Caco-2 cells; hemagglutination inhibition; assay type: cell-based; settings: 60 mM sugar, 300 nM protein, on ice; also hemagglutination of human group O erythrocytes
T1 construct: gene igl1; CRD-like region, residues 989-1,088 (100 aa), His-tagged, pET-19b, E. coli BL21 Star(DE3)pLysS

Igl-C = target: T2, Igl-C (Entamoeba histolytica, UniProt Q964D2); test: competition with FITC-PNA on Caco-2 cells; assay type: cell-based; settings: 60 mM sugar, 300 nM protein, on ice
T2 construct: gene igl1; C-terminal segment, 486 aa (contains Igl-C0 to C3, ends at about residue 1,088), His-tagged, pET-19b, E. coli BL21 Star(DE3)pLysS
T2 sequence (Q964D2 entry or part of it): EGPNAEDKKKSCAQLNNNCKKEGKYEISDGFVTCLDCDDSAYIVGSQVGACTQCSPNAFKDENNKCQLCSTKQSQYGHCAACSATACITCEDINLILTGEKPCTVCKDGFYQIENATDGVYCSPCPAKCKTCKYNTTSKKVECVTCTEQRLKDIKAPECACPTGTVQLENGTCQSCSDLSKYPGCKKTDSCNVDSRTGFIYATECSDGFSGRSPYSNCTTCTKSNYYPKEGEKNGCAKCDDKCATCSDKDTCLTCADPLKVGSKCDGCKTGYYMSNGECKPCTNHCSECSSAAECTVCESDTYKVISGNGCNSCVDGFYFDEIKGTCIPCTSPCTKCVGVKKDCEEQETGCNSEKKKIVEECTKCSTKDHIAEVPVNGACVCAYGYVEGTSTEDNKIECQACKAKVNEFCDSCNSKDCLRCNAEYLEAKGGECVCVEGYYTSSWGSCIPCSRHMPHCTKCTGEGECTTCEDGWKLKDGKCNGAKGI

T1 sequence (Q964D2 entry or part of it): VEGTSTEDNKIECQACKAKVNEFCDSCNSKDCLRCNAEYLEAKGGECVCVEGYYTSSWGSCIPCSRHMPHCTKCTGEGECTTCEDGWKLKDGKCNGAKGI

SMILES	competition with FITC-PNA on Caco-2 cells; hemagglutination inhibition (Igl-C3)	competition with FITC-PNA on Caco-2 cells (Igl-C)
OC[C@H]1OC(O)[C@H](O)[C@@H](O)[C@H]1O (stereo partly shown) [Gal, galactose]	only Igl-C3 exhibited obvious hemagglutinating activity, which could be inhibited by Gal/GalNAc	this competitive process could in turn be weakened by the addition of Gal and GalNAc
CC(=O)N[C@H]1C(O)O[C@H](CO)[C@H](O)[C@@H]1O (stereo partly drawn) [GalNAc, N-acetyl-D-galactosamine]	only Igl-C3 exhibited obvious hemagglutinating activity, which could be inhibited by Gal/GalNAc	this competitive process could in turn be weakened by the addition of Gal and GalNAc
